Values of other authors as cited in patent publication US10696827B2, “Polyolefin composition comprising an antimicrobial additive” (SABIC GLOBAL TECHNOLOGIES B.V., priority 2015, dated 2020).

System: Staphylococcus aureus
Settings: >0.4% of additive in LDPE catheter, rabbits, subcutaneous

SMILES: CCCCCCc1ccc(O)cc1O [4-n-hexyl resorcinol]
- infection: little to no infection
